Data as given in patent US20220226335A1, “Non-Peptidic Heterocycle-Containing Compounds for the Treatment of Alzheimer?s Disease” (The Governors of the University of Alberta, priority 2019, published 2022).
pIC50: −log10 of the molar value. Read-outs that look alike come from different tables or passages of the source. Where no end group is shown, it is not given here.

Columns and labels:
[1] = molecular target: T1, amylin receptor subtype 3 (AMY3) (Homo sapiens, UniProt O60896+P30988); assay: cAMP assay in amylin receptor subtype 3 expressing cells (AMY3-HEK), ELISA and in-cell Western; type: cell-based; details: for pIC50: compound and human amylin applied simultaneously, read-out: IC50 required to block hAmylin induced cAMP increase
T1 construct: expressed in transfected cells
T1 sequence (P30988 25-474): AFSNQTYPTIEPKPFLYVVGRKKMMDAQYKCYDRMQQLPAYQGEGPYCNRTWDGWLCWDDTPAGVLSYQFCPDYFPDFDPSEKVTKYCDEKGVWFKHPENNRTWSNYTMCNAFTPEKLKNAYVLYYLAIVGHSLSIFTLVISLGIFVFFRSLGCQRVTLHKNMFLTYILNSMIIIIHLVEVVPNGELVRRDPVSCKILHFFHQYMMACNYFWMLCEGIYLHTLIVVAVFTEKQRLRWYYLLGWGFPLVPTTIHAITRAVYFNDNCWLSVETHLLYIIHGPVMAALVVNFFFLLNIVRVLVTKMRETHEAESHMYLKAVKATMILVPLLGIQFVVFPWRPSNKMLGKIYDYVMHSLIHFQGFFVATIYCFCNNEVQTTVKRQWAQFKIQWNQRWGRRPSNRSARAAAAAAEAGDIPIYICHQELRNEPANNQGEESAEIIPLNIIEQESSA
T1 sequence (O60896 24-148): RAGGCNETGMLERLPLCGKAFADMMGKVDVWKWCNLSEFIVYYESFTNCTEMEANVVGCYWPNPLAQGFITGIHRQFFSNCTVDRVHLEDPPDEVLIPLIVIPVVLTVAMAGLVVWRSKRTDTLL
Procedure: An initial set of 10 compounds was screened using a cyclic AMP (cyclic adenosinemonophosphate, cAMP) assay in amylin receptor subtype 3 expressing cells.
Cell Cultures. Amylin receptor subtypes (AMY3-HEK cells) stably expressed in human embryonic kidney (HEK293) cell-line were generated and characterized as described in a previous published article from our laboratory (Fu et al., J. Biol. Chem. 2012). The AMY3-HEK cells were grown in a 5% CO2 humidified incubator at 37° C. with DMEM, 10% FBS, and 100 μg/mL Zeocin medium.
Two cAMP detection methods were used to validate the findings.
ELISA (enzyme-linked immunosorbent assay). Cellular cAMP levels were measured using a parameter cyclic AMP assay kit (R&D Systems) according to the manufacturer's instructions. Briefly, AMY3-HEK cells were plated on 24-well plates overnight. These cells were then incubated with or without the assay compounds and hAmylin for 5 min. The cells were lysed with lysis buffer provided in the assay kit. Standard curves were plotted using the cAMP standards provided in the ELISA kits. All samples were analyzed in duplicate. The plate is measured at 450 nm. Data was plotted, and non-linear regression was fitted with four parameters using Prism software (GraphPad Software, La Jolla, Calif.).
In-cell Western blot technique. Intracellular cAMP signaling profiles were also determined using in-cell Western blot technique as previously described (Fu W, et al., J Biol Chem. 2012; 287(22):18820-30). AMY3-HEK cells were seeded at 10,000 cells/well in a 96-well plate (Nalge Nunc Intl., Rochester, N.Y.) in DMEM, 10% FBS, Zeocin medium and cultured overnight. […] For cyclic adenosinemonophosphate (cAMP) quantification, mouse monoclonal anti-cAMP (R&D Systems) was used as a primary antibody, and IRDye 800 goat anti mouse antibody (LI-COR) was used as a secondary antibody, whereas Sapphire700 and DRAQ5 were used for cell number normalization (LI-COR). […]

amylin receptor = assay: downstream phosphoERK response; type: cell-based; details: among Compounds 22-25
[2] = system: N2a (mouse) neuronal cells; assay: MTT cell death assay, N2a neuronal cells; type: cell-based; details: 10 μM Aβ1-42 for 24 hours
Procedure: (§1) MTT Cell Death Assay. The N2a (mouse) and SK-N-SH (human) neuronal cells were seeded to 5000 cells/well in a 96-well plate in DMEM medium, 10% FBS and incubated overnight. Cells in culture medium were incubated either with or without the assay compounds and Aβ1-42, 10 μM for 24-48 h. At the end of treatment, 20 μL of 5 mg/mL 3-(4,5-dimethylthiazol-2-yl)-2,5-diphenyltetrazolium bromide (MTT, Sigma) was added to each well and incubated at 37° C. for 3 h. Medium was removed, 100 μL of MTT solvent (isopropanol with 4 mM HCl) was added to each well, and the plates were incubated for 30 min at room temperature on a rotating shaker. Plates were analyzed on a microplate reader at a 562 nm wavelength.
(§2) FIGS. 2A and 2B. In mouse and human neuronal cell lines co-application of Compound 3 blunted human amylin and amyloid beta induced cytotoxicity. Neuronal cell lines N2a and SK-N-HS were treated with increasing concentrations of Compound 3 plus 10 μM Aβ1-42 or 5 μM hAmylin for 48 h.

[3] = system: SK-N-SH (human) neuronal cells; assay: MTT cell death / cytotoxicity assay, SK-N-SH neuronal cells; type: cell-based; details: 10 μM Aβ1-42 for 24 hours
Procedure: as §1, §2

N2a cells = assay: Live/Dead cell assay; type: cell-based, mouse; details: data not shown
Procedure: Live/Dead cell assay. LIVE/DEAD™ Viability/Cytotoxicity Kit from ThermoFisher Scientific (Invitrogen) was used according to the instructions of the manufacturer. Briefly, The N2a cells were cultured in 8 well Lab-Tek chamber slide (ThermoFisher Scientific, Nunc). Cells were incubated either with or without the assay compounds, followed by treatment with Aβ1-42 for 24 h. At the end of treatment, the cells were washed three times with D-PBS, followed added live/dead reagent in D-PBS and culture for 30 min. Then fixed the cells with 4% paraformaldehyde for 10 min. Further washed the cells with PBS three times and sealed with coverslip. View the labeled cells under fluorescence microscope. Fluorescent microscopy images were acquired with an Axioplan-2 fluorescence microscope with AxioVision software (Carl Zeiss Ltd., Toronto, ON, Canada). Live/Dead cells were analyzed with Image J software (Schneider, C. A., Rasband, W. S., Eliceiri, K. W. “NIH Image to ImageJ: 25 years of image analysis”. Nature Methods 2012; 9:671-675).

brain hippocampal slices = assay: hippocampal long term potentiation (LTP) electrophysiology, slices from wild type mice; design: species or system mouse; details: for effect on human amylin-induced depression/reduction of LTP: hippocampal slices, Compounds 3 and 23 at 1 μM
Excerpt: Hippocampal long term potentiation (LTP) electrophysiology experiments: an in vitro cellular surrogate for memory. Brains were quickly removed from mice following decapitation, placed in a cold artificial cerebral spinal fluid (aCSF) on a vibratome chamber and transverse sections cut through the hippocampus. The aCSF contained (in mM) 124 NaCl, 3 KCl, 2.4 CaCl2), 2 MgCl2, 1.25 NaH2PO4, 26 NaHCO3 and 10 D-glucose, and was equilibrated with 95% O2 and 5% CO2. Hippocampal slices ([…]) were maintained in aCSF-filled holding chamber at room temperature for at least 1 hour and individually transferred to the submerged glass bottom recording chamber, which was constantly perfused with aCSF (2 mL/min) at 30° C. Field excitatory postsynaptic potential (fEPSP) was recorded with a metallic (Pt/Ir) electrode (FHC, Bowdoin, Me.) from the stratum radiatum layer of Cornu ammonis 1 region of the hippocampus (CA1) area, and the Schaffer collateral afferents were stimulated with 100-μs test pulses via a bipolar cluster electrode (FHC) (Kimura et al., 2012, Kimura et al. 2016). To evaluate basal synaptic transmission, we applied different stimulation strengths (75 μA to 300 μA in steps of 25 μA) and plotted the amplitudes of presynaptic fiber volleys versus the corresponding fEPSP slopes to compare the slope of input/output (I/O) curves of fEPSP. For long-term potentiation (LTP) experiments, the stimulus strength was set to elicit 40-50% of the maximum fEPSP amplitude and test pulses were delivered to Schaffer collaterals once every 30 seconds. LTP was induced by 3-theta-burst stimulation (3-TBS) protocol (each burst consisted of 4 pulses at 100 Hz with a 200-ms inter-burst interval). Before 3-TBS or drug application, the responses were monitored for at least 10 minutes to ensure a stable baseline of fEPSP. […] Results were from various treatment groups were plotted as histograms with means±standard error (SE). […]

[4] = system: hippocampal brain slices from transgenic AD mice (TgCRND8); assay: hippocampal LTP electrophysiology, slices from transgenic AD mice (TgCRND8); design: species or system mouse; details: compared with age-matched control/wild type mice
Excerpt: Hippocampal long term potentiation (LTP) electrophysiology experiments: an in vitro cellular surrogate for memory. Brains were quickly removed from mice following decapitation, placed in a cold artificial cerebral spinal fluid (aCSF) on a vibratome chamber and transverse sections cut through the hippocampus. The aCSF contained (in mM) 124 NaCl, 3 KCl, 2.4 CaCl2), 2 MgCl2, 1.25 NaH2PO4, 26 NaHCO3 and 10 D-glucose, and was equilibrated with 95% O2 and 5% CO2. Hippocampal slices ([…]) were maintained in aCSF-filled holding chamber at room temperature for at least 1 hour and individually transferred to the submerged glass bottom recording chamber, which was constantly perfused with aCSF (2 mL/min) at 30° C. Field excitatory postsynaptic potential (fEPSP) was recorded with a metallic (Pt/Ir) electrode (FHC, Bowdoin, Me.) from the stratum radiatum layer of Cornu ammonis 1 region of the hippocampus (CA1) area, and the Schaffer collateral afferents were stimulated with 100-μs test pulses via a bipolar cluster electrode (FHC) (Kimura et al., 2012, Kimura et al. 2016). […] Before 3-TBS or drug application, the responses were monitored for at least 10 minutes to ensure a stable baseline of fEPSP. […]

Aβ plaques = assay: Aβ plaque load (FIG. 8); type: in vivo
neurons = details: Jhamandas et al., 2004; 2011; 2012; cited from earlier work
[5] = system: hippocampus of Alzheimer's disease mice (TgCRND8); details: Kimura et al., 2012; 2016; cited from earlier work

Molecule: Cc1nc(C)c(CCC(=O)N2CC(=O)Nc3ccccc32)c(=O)[nH]1 [Compound 23, 4-(3-(2,4-dimethyl-6-oxo-1,6-dihydropyrimidin-5-yl)propanoyl)-3,4-dihydroquinoxalin-2(1H)-one]
- pIC50 ([1]; 0.1 μM hAmylin): 9.00
- pIC50 ([1]; 1 μM hAmylin): 6.82
- potency rank in cAMP assay ([1]; among Compounds 22-25): most potent of these four analogues
- potency rank in downstream phosphoERK response (amylin receptor): most potent of these four analogues
- neuroprotection against amyloid beta toxicity [2]: neuroprotective against amyloid beta toxicity
- neuroprotection against amyloid beta toxicity [3]: neuroprotective against amyloid beta toxicity
- neuroprotective effects against Aβ toxicity, Live/Dead cell assay (N2a cells): confirmed neuroprotective effects
- effect on human amylin-induced depression/reduction of LTP (brain hippocampal slices): restored the reduction in LTP by nanomolar dose of human amylim (h-Amylin) to control levels
- effect on amyloid beta (Aβ)-induced reduction in LTP (brain hippocampal slices; nanomolar dose of Aβ, compound 1 μM): restored to control levels
- effect on chronically depressed LTP in transgenic AD mice slices [4]: restoration of LTP in AD mice to levels comparable to wild type mice
- area covered by plaques (Aβ plaques): decreases
- total Aβ plaques (Aβ plaques): decreases

Molecule: cyclized AC253: cyclized AC253 (CLGRLSQELHRLQTYPRTNTGSNTYC; also: cyclised, mode of ring closure not given here) [reference compound]
- area covered by plaques (Aβ plaques): decreases
- total Aβ plaques (Aβ plaques): decreases

Molecule: COC(=O)N[C@H](C(=O)N1CCC[C@H]1c1ncc(-c2ccccc2)[nH]1)C(C)C [AVI9030, methyl N-[(1S)-2-methyl-1-[[(2S)-2-(5-phenyl-1H-imidazol-2-yl)-1-pyrrolidinyl]carbonyl]propyl]carbamate, reference compound]
- effect on human amylin-induced depression/reduction of LTP (brain hippocampal slices): did not block human amylin-induced reduction of LTP

Molecule: AC253: peptide antagonist of the amylin receptor, SEQ ID NO: 1 (Ac-LGRLSQELHRLQTYPRTNTGSNTY)
- neuroprotection against Aβ toxicity (neurons): neuroprotective against Aβ toxicity
- effect on Aβ- or human amylin-induced depression of long-term potentiation [5]: can reverse impairment of Aβ- or human amylin-induced depression of long-term potentiation
